# Laboratory results published in US20220296518A1, “LIPID-BASED NANOPARTICLE DELIVERY SYSTEM FOR HYDROPHILIC CHARGED COMPOUND” (National Taiwan University, priority 2021, published 2022).
# Legend:
# [1] = In vitro drug release by dialysis at pH 7.4 (PBS) and pH 5.4 (citrate buffer), 37° C.; type: physicochemical
# Description: The “normalized release” is defined as release ratio in pH 5.4 environment divided by release ratio in pH 7.4 environment wherein the release ratio is defined as the percentage of API released from LNP. A high normalized release is a result of high release ratio in pH 5.4 environment as compared to the release ratio in pH 7.4 environment. Since tumor sites present acidic environment, a high normalized release is a metric indicating tumor targeting capability of an LNP. During experiments, PBS buffer was used to simulate a physiological environment at pH of 7.4, while citrate buffer was used to simulate a tumor microenvironment at pH of 5.4, wherein the citrate buffer contains sodium citrate dehydrate and citric acid and its pH can be adjusted using NaOH and HCl. The in vitro API release was evaluated in these two different solutions using the following steps: 1 mg/mL LNP-dox solution in PBS buffer was prepared by diluting LNP-dox using PBS buffer. The solution was placed into a 1 mL/5 cm dialysis tube (Float-A-lyzer), in which the pore size is 100 kDa. The tube was placed into a beaker containing 150 mL dialysis buffer. The beaker was then placed into a 37° C. water bath. Samples of 1 mL solution were taken from the beaker at 0, 0.5, 1, 2, 4, 8, 26, and 31 hour(s). The API content in the samples was analyzed using UV-Vis spectrophotometer such as […]. […]
# colon-26 carcinoma tumor = experiment: In vivo therapeutic efficacy in colon-26 carcinoma tumor-bearing mice; parameters: species or system BALB/c mice; conditions: end of the experiment; 5 mg/kg of dox via tail vein, once per week
# Description: C26 […] cancer cell line was implanted into the backs of BALB/c mice to create colon-26 carcinoma tumor-bearing mice. When the tumor grew to 100 mm^3, LNP 1 of the present invention containing dox was injected via mice's vein located in the tail at a dosage of 5 mg/kg of dox, once per week. At predetermined time periods 1, 2, 5, 7, 9, 12, 14, 19, 21, 22 days, tumor volume was determined by Vernier caliper. The experiment continued until either mouse death or the tumor size exceeding 2,500 mm^3.
# Staphylococcus aureus = experiment: In vitro antibacterial susceptibility, Staphylococcus aureus; type: cell-based; conditions: 10^5 CFU, about 24 hour, about 37° C.
# Description: FIG. 8 illustrates in vitro Staphylococcus aureus antibacterial susceptibility to LNP 1 of the present invention encapsulating doxycycline as compared to free form doxycycline both at MIC 0.4 mcg/ml.
# (§1) Free form doxycycline and LNP 1 of the present invention containing doxy were separately applied to Staphylococcus aureus bacteria as well as methicillin-resistant Staphylococcus aureus at 10^5 CFU, incubation with LNP for about 24 hour at about 37° C.
# [2] = tested on: methicillin-resistant Staphylococcus aureus; experiment: In vitro antibacterial susceptibility, methicillin-resistant Staphylococcus aureus; type: cell-based; conditions: 10^5 CFU, about 24 hour, about 37° C.
# Description: FIG. 9 illustrates in vitro methicillin-resistant Staphylococcus aureus antibacterial susceptibility to LNP 1 of the present invention encapsulating doxycycline as compared to free form doxycycline both at MIC 0.4 mcg/ml.
# as §1
MIC (Staphylococcus aureus) [µg/mL],MIC [2] [µg/mL],SMILES,"normalized release (release ratio at pH 5.4 / release ratio at pH 7.4) ([1]; 37° C., dialysis, up to 31 hours)","release rate (in words) ([1]; pH 7.4 and pH 5.4, 37° C., FIG. 6)",mice that died or had tumor size of over 2500 mm^3 (colon-26 carcinoma tumor) [%]
,,"COc1cccc2c1C(=O)c1c(O)c3c(c(O)c1C2=O)C[C@@](O)(C(=O)CO)C[C@@H]3O[C@H]1C[C@H](N)[C@H](O)[C@H](C)O1 [free form dox, doxorubicin]",about 1,released the fastest of the three,40
0.4,0.4,"C[C@H]1c2cccc(O)c2C(=O)C2=C(O)[C@]3(O)C(=O)C(C(N)=O)=C(O)[C@@H](N(C)C)[C@@H]3[C@@H](O)[C@@H]21 [free form doxycycline, doxycycline]",,,
